From patent US9770481B2, “Inhibitors of NOX1” (UNIVERSITY OF PITTSBURGH—OF THE COMMONWEALTH SYSTEM OF …, priority 2011, dated 2017) come the findings set out here.

Assay type in all cases: cell-based
Assay [1] has as its system HT-29 colon adenocarcinoma cells. The experiment in a line: O2- production by HT-29 cells (SOD inhibitable reduction of cytochrome c). The following applies: increasing doses.
The next assay deals with T1, Nox4 (Homo sapiens, UniProt Q9NPH5).
T1 construct: expressed in transfected cells; host or cells: COS22 / COS cells, transient transfection
T1 sequence (Q9NPH5 1-578): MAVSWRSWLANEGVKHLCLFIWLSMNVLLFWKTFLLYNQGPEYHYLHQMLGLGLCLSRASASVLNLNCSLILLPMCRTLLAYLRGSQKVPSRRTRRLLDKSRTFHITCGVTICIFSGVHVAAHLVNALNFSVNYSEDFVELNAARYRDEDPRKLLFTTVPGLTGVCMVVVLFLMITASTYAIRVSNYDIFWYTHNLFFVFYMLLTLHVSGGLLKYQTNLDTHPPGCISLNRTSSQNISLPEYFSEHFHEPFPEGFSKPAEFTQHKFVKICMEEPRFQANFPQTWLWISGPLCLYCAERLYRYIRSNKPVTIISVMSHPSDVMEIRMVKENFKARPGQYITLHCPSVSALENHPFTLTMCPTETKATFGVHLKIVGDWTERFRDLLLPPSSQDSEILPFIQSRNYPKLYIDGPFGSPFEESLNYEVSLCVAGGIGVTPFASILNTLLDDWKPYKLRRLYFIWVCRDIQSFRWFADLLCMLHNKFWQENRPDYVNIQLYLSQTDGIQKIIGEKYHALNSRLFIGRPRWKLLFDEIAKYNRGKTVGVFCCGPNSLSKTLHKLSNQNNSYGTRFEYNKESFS
T1 sequence (P13498 1-195 partner): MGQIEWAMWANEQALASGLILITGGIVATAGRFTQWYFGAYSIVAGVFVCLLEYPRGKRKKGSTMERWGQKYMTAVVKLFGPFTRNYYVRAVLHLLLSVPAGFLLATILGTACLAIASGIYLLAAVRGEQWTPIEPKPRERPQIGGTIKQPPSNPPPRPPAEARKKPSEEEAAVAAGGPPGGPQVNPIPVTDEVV
The experiment in a line: H2O2 production by COS cells transfected with Nox4 oxidase (Amplex red). The settings on record: 100 nM to 10,000 nM. How it is done: (§1) To test whether the inhibitory effect of NoxA1ds is specific to Nox1, the effect of NoxA1ds was tested on cells expressing Nox2, Nox4, and Nox5 as well as on purified xanthine oxidase enzyme. To test the effect on Nox2, production of O2^− was measured by the reduction of cytochrome c by cell lysates from COS cells transiently transfected with the Nox2 oxidase, stimulated with LiDS, and the treated with increasing concentrations of NoxA1ds (from 0.1 nM to 10,000 nM). Similarly, production of H2O2 was measured by Amplex red fluorescence by COS cells transiently transfected with the Nox4 oxidase and treated with increasing concentrations of NoxA1ds (from 100 nM to 10,000 nM). Production of O2^− was also measured by the reduction of cytochrome c by cell lysates from HEK293 cells stably transfected with the Nox5 oxidase stimulated with Ca^2+, and treated with increasing concentrations of NoxA1ds (from 0.1 nM to 10,000 nM). Finally, production of O2^− was measured by Electron Paramagnetic Resonance from pure xanthine oxidase enzyme preparations, stimulated with hypoxanthine and treated with increasing concentrations of NoxA1ds (from 0.1 nM to 10,000 nM).

The target of a further assay is T2, Nox2 (Homo sapiens, UniProt P04839).
T2 construct: expressed in transfected cells; host or cells: COS22 / COS cells, transient transfection; cell lysates
T2 sequence (P04839 2-570 limits assumed): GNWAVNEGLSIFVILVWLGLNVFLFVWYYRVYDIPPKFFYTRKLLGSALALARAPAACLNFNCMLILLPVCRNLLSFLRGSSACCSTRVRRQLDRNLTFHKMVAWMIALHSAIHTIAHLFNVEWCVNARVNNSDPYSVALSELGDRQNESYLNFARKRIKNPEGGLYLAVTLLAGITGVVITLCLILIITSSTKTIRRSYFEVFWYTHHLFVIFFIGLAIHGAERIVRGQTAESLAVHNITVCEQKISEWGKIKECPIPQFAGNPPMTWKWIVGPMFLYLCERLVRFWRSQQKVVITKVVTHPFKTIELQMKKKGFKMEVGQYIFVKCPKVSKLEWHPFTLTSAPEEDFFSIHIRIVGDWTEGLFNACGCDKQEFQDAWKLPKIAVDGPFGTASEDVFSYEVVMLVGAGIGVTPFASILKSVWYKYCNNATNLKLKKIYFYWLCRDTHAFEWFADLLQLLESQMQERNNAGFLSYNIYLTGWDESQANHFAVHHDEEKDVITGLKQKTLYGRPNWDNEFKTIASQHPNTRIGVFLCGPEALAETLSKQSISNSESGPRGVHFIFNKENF
T2 sequence (P13498 1-195 partner): T1 sequence (P13498 1-195 partner)
The experiment in a line: O2- production by lysates of COS cells transfected with Nox2 oxidase, LiDS-stimulated (cytochrome c). The settings on record: 0.1 nM to 10,000 nM. How it is done:
as §1

In assay [2] the test system is human pulmonary artery endothelial cells. The experiment in a line: Hypoxia-induced superoxide production by human pulmonary artery endothelial cells. The procedure: Experiments were also performed to evaluate the effect of NoxA1ds on hypoxia-induced superoxide production by human pulmonary artery endothelial cells.
The next assay has as its target T3, Nox1 (Homo sapiens, UniProt Q9Y5S8).
T3 construct: expressed in transfected cells; host or cells: COS22 (monkey kidney COS cells stably expressing human p22phox)
T3 sequence (Q9Y5S8 1-564): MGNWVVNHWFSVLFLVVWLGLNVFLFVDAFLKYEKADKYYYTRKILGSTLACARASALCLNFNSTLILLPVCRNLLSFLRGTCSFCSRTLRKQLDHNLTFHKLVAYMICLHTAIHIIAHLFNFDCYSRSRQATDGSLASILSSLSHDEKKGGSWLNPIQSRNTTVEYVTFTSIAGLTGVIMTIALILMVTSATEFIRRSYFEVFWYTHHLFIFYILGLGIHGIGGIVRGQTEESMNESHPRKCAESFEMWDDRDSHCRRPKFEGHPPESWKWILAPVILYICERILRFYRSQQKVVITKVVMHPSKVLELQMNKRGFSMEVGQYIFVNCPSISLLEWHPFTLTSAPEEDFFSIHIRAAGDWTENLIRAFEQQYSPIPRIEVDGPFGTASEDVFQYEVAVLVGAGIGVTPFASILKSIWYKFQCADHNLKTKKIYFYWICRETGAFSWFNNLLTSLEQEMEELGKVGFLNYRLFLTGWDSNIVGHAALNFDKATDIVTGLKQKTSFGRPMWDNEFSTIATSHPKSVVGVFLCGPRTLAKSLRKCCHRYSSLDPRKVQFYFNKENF
T3 sequence (P13498 1-195 partner): T1 sequence (P13498 1-195 partner)
As to the kind of experiment: O2- production by COS22 cells transfected with Nox1 (cytochrome c reduction). The following applies: COS 22; at a dose of 1.0 μM; read-out: Maximal inhibition of total O2- production. The procedure:
Experiments were performed to test the effect of NoxA1ds on O2^− production by Nox1. COS22 is a monkey kidney COST cell line expressing transgenic human p22phox and was produced by stable transfection of the full-length p22phox cDNA into parental COST wild-type cells. COS22 cells were transfected with Nox1 to express the Nox1 enzyme and were then treated with either NoxA1ds or its scrambled control (SCRMB). Production of O2^− was calculated by monitoring the reduction of cytochrome c for 15 minutes post NADPH addition and subtracting baseline cytochrome c reduction occurring in the presence of SOD.

With “H-EPVDALGKAKV-NH2 [NoxA1ds, [NH3^+]-EPVDALGKAKV-[CONH2]]”, the “Inhibition of O2- production by HT-29 cells” value in assay [1] was “dose-dependent inhibition”. The “Inhibitory effect on Nox4 H2O2 production” value on Nox4 is given as “did not exhibit a significant inhibitory effect”. At Nox2, the “Inhibitory effect on Nox2 O2- production” value is recorded as “did not exhibit a significant inhibitory effect”. The “O2- production under hypoxia” value in assay [2] (hypoxia 1.0% O2, 24 hrs) is on record as “returned to the amount observed under normoxia”. For the same substance, the “O2- production under normoxic conditions” value in assay [2] (normoxia) is on record as “negligible effect”. For the same substance, the inhibition (commonly the drop in the measured response relative to a control, in per cent) at 1 µM on Nox1 is 88%.
